In publication PMC5748751, “Study of Structure and Permeability Relationship of Flavonoids in Caco-2 Cells” (Nutrients, 2017):
Read-outs that look alike come from different tables or passages of the source. Marks after values point to notes of the source that are not given here.

Key:
[1] = Permeability (bidirectional transport) of flavonoids in Caco-2 cell monolayers; type: in vitro ADME; settings: human; for Papp A→B at 60 min, 40 μM: Caco-2, apical to basolateral; for Papp A→B at 60 min, 40 μM / Papp B→A at 60 min, 40 μM: incubation 60 min, 37 °C, D-Hank's pH 7.4, mean ± SD, n = 3–6; for Papp B→A at 60 min, 40 μM: Caco-2, basolateral to apical; for Papp at 1 h, 40 μM: Caco-2 monolayer; for efflux ratio at 60 min, 40 μM: pH 7.4, Caco-2 monolayer, read-out: Ratiop (ratio of Papp B to A to Papp A to B)
Protocol: Caco-2 cells were cultured in MEM supplemented with 10% FBS, 1% NEAA, penicillin (100 U/mL) and streptomycin (100 μg/mL) in an atmosphere of 5% CO2 and 90% relative humidity at 37 °C. All cells used in this study were between passages 35 and 45 [16].
Caco-2 cells were seeded at a density of about 8 × 10^4 cells/cm^2 on a 12 wells Millicell hanging insert and left to grow for 19–21 days to reach confluence. Culture medium was replaced every other day for 14 days and daily thereafter. The integrity and transport ability of the Caco-2 cells monolayer were examined by measuring the trans-epithelial electrical resistance (TEER) with a Millicell voltammeter (Millicell ERS-2, Merck Millipore, Billerica, MA, USA) and running standard assays using Lucifer yellow CH as paracellular flux marker. […] Differentiation of Caco-2 cells was checked after 4 and 12 days by determining the activity of alkaline phosphatase with an assay kit (Nanjing Jiancheng Bioengineering Institute, Nanjing, China) and after 21 days transmission electron microscopy was performed on Caco-2 monolayer to evaluate differentiation.
The Caco-2 cell monolayer was washed with D-Hank’s buffer (pH 7.4). Then, the flavonoid (40 μM) was added to either the apical (AP, 0.4 mL) or basolateral (BL, 1.95 mL) side, while the receiving chamber contained the corresponding volume of D-Hank’s buffer and incubated for 1 h at 37 °C. Solutions from both AP and BL sides of Caco-2 cell monolayer were collected and immediately frozen, lyophilized and preserved at −80 °C for high performance liquid chromatography (HPLC) analysis. Papp was calculated from Equation (1), where ΔQ/Δt is the rate of the flavonoid on the accepting chamber (μM/s), A is the surface area of the hanging insert (cm^2) and C0 is the initial concentration of tested flavonoid in donating chamber (μM/mL).(1) Papp=ΔQ/Δt/AC0

Caco-2 cell monolayer [2] = assay: Cellular accumulation (CA) of flavonoids in Caco-2 cell monolayer; settings: for Ratioc (ratio of CA B to A to CA A to B): Caco-2 monolayer; for CA A to B: accumulated in cell monolayer after transport apical to basolateral; for CA A to B / CA B to A: 40 μM, 1 h, normalized to cellular protein, mean ± SD, n = 3; for CA B to A: accumulated in cell monolayer after transport basolateral to apical; for CA: both sides (CA A to B and CA B to A)
Protocol: (§1) After the collection of samples from both AP and BL sides, the hanging insert was rinsed twice with ice-cold D-Hank’s buffer to stop further transport, and lysed with 0.1% Triton X-100 in D-Hank’s buffer then placed in an ultrasonic bath for 15 min. Cell lysates were collected and centrifuged at 7000× g for 10 min. Supernatants were analyzed by BCA kit (Dingguochangsheng Biotechnology, Beijing, China) for protein content. After protein content assay, supernatants were immediately frozen, lyophilized and preserved at −80 °C. The flavonoid concentration in lysis solution was determined by HPLC and normalized with cellular protein content.
(§2) To determine both the permeability and CA of flavonoids in Caco-2 cells, the lyophilized samples were dissolved in running 120 to 200 μL methanol, and centrifuged at 7000× g for 5 min. Aliquot of 20 μL of the supernatant solution was used for assay using Waters e2695 HPLC system (Milford, MA, USA) fitted with an Amethyst C18-H column (250 mm × 4.6 mm i.d., 5 μm; Sepax, Newark, DE, USA). The mobile phase consisted of A (0.01 M phosphoric acid (H3PO4))/B (acetonitrile) with 1.0 mL/min flow rate. […] Peak area measurement was used to obtain standard calibration curves to determine concentration of each flavonoid.

[3] = Cell viability (MTT) assay of flavonoids in Caco-2 cells; type: cell-based; settings: human
Protocol: The cytotoxicity of flavonoids and colchicine was evaluated by MTT assay. The cells were grown in 96-well plates at a density of 1 × 10^4 cells/well. After incubation with 40 μM flavonoid for 24 h, the cells were further incubated with an MTT solution (0.5 mg/mL) for 4 h at 37 °C. Finally, after removal of the supernatant, 150 μL dimethyl sulphoxide was added to each well to dissolve crystallized MTT. Absorbance was read at 570 nm with a multiskan spectrum microplate reader (Thermo Labsystems, Waltham, MA, USA). The percentage cell viability relative to that of the control cells was used as the cytotoxicity measure.

[4] = Stability of flavonoids in D-Hank's buffer relative to methanol; type: physicochemical; settings: 20 μM flavonoid, HPLC peak area in D-Hank's / peak area in methanol × 100%
Protocol: The relative stability was expressed as the relative appearance of flavonoids in different solvents. Each flavonoid (20 μM) was dissolved in two different solvents, D-Hank’s and methanol. […] Relative concentration in D-Hank’s (%) = Peak area in D-Hank’s/Peak area in methanol × 100%(3)

[5] = Recovery (mass balance) of flavonoids during Caco-2 transport assay; type: in vitro ADME; settings: human, Caco-2, mass balance, both sides of insert plus cells
Protocol: The recovery of the flavonoid glycosides during the transport assays was determined by mass balance and was measured as total amount of the flavonoids on both sides of the insert and in the Caco-2 cells.

Caco-2 cell monolayer [6] = settings: human, Caco-2, 1 h, 40 μM, pH 7.4
Protocol: as §1, §2

[7] = Caco-2, pH 7.4, as stated in text, direction not specified (bilateral)
[8] = transport apical to basolateral, read-out: Recovery (A to B, %)
[9] = transport basolateral to apical, read-out: Recovery (B to A, %)

Compound	Papp A→B at 60 min, 40 μM [1]	Papp B→A at 60 min, 40 μM [1]	Papp at 1 h, 40 μM [1, 7]	efflux ratio at 60 min, 40 μM [1]	Ratioc (ratio of CA B to A to CA A to B) (Caco-2 cell monolayer [2])	CA A to B (Caco-2 cell monolayer [2])	CA B to A (Caco-2 cell monolayer [2])	Relative concentration of flavonoids, D-Hank's/methanol (%) ([4]; listed as chrysin)	CA (Caco-2 cell monolayer [6])	CA (Caco-2 cell monolayer [2])	viability at 24 h, 40 μM [3]	Relative concentration of flavonoids, D-Hank's/methanol (%) [4]	Papp at 1 h, 40 μM ([1]; pH 7.4, direction not specified (bilateral))	recovery [5, 8]	recovery [5, 9]
O=c1cc(-c2ccc(O)cc2)oc2cc(O)cc(O)c12 [Compound 6, Apigenin]	17.1 ± 1.72 ×10⁻⁶ cm/s	16.9 ± 1.02 ×10⁻⁶ cm/s		0.99	1.72	4.415 ± 0.467 µmol/g	7.610 ± 0.694 ^b μmol/g				101 ± 4.56%	41.76%			
COc1ccc([C@@H]2CC(=O)c3c(O)cc(O)cc3O2)cc1O [Compound 18, Hesperetin]	23.5 ± 0.85 ×10⁻⁶ cm/s	27.9 ± 2.76 ×10⁻⁶ cm/s	> 20 ×10⁻⁶ cm/s	1.19	1.27	1.293 ± 0.086 µmol/g	1.644 ± 0.300 µmol/g				100 ± 2.7%	115.83%			
C[C@@H]1O[C@@H](Oc2c(-c3ccc(O)c(O)c3)oc3cc(O)cc(O)c3c2=O)[C@H](O)[C@H](O)[C@H]1O [Compound 16, Quercitrin]	4.24 ± 1.25 ×10⁻⁶ cm/s	5.96 ± 1.2 ×10⁻⁶ cm/s								not detected	98.4 ± 3.86%	116.67%	< 6 ×10⁻⁶ cm/s	90.7 ± 8.85%	76.8 ± 9.36%
O=C1C[C@@H](c2ccc(O)cc2)Oc2cc(O)ccc21 [Compound 21, Liquiritigenin]	31 ± 0.8 ×10⁻⁶ cm/s	37 ± 1.97 ×10⁻⁶ cm/s	> 30 ×10⁻⁶ cm/s			0.635 ± 0.146 µmol/g	1.234 ± 0.249 ^a μmol/g		< 5 µmol/g		101 ± 4.27%				
C[C@@H]1O[C@@H](OC[C@H]2O[C@@H](Oc3c(-c4ccc(O)c(O)c4)oc4cc(O)cc(O)c4c3=O)[C@H](O)[C@@H](O)[C@@H]2O)[C@H](O)[C@H](O)[C@H]1O [Compound 17, Rutin]	4.04 ± 0.07 ×10⁻⁶ cm/s	4.28 ± 0.44 ×10⁻⁶ cm/s	< 6 ×10⁻⁶ cm/s							not detected	106 ± 5.48%	66.82%		98.2 ± 4.74%	97 ± 1.67%
O=c1c(-c2ccc(O)cc2)coc2c([C@@H]3O[C@H](CO)[C@@H](O)[C@H](O)[C@H]3O)c(O)ccc12 [Compound 24, Puerarin]	2.25 ± 0.96 ×10⁻⁶ cm/s	2.7 ± 0.41 ×10⁻⁶ cm/s	< 6 ×10⁻⁶ cm/s							not detected	105 ± 6.13%	30.31%		87.4 ± 3.31%	85.25 ± 0.6%

Now from value to molecule, other results behind:

Papp A→B at 60 min, 40 μM [1]	Papp B→A at 60 min, 40 μM [1]	Papp at 1 h, 40 μM [1, 7]	efflux ratio at 60 min, 40 μM [1]	Ratioc (ratio of CA B to A to CA A to B) (Caco-2 cell monolayer [2])	CA A to B (Caco-2 cell monolayer [2])	CA B to A (Caco-2 cell monolayer [2])	Relative concentration of flavonoids, D-Hank's/methanol (%) ([4]; listed as chrysin)	CA (Caco-2 cell monolayer [6])	Compound	CA (Caco-2 cell monolayer [2])	viability at 24 h, 40 μM [3]	Relative concentration of flavonoids, D-Hank's/methanol (%) [4]	Papp at 1 h, 40 μM ([1]; pH 7.4, direction not specified (bilateral))	recovery [5, 8]	recovery [5, 9]
32.1 ± 2.98 ×10⁻⁶ cm/s	35.3 ± 1.16 ×10⁻⁶ cm/s	> 30 ×10⁻⁶ cm/s	1.1	2.29	1.935 ± 0.305 µmol/g	4.436 ± 0.299 ^b μmol/g			O=C1C[C@@H](c2ccc(O)cc2)Oc2cc(O)cc(O)c21 [Compound 19, Naringenin]	< 5 µmol/g	95.6 ± 3.47%	113.93%			
6.78 ± 0.12 ×10⁻⁶ cm/s	8.41 ± 0.62 ×10⁻⁶ cm/s		1.24	2.26	3.902 ± 0.251 µmol/g	8.828 ± 0.213 ^b μmol/g	less than 50%		O=c1cc(-c2ccccc2)oc2cc(O)cc(O)c12 [Compound 7, Chrysin]		103 ± 4.94%	47.63%			
10.1 ± 7.33 ×10⁻⁶ cm/s	21.4 ± 2.12 ×10⁻⁶ cm/s		2.12	2.23	3.876 ± 0.741 µmol/g	8.639 ± 1.275 ^b μmol/g			O=c1cc(-c2ccc(O)c(O)c2)oc2cc(O)cc(O)c12 [Compound 5, Luteolin]		101 ± 4.19%	87.51%			
